We go through 4 compounds from the NIST ThermoML archive (doi:10.1016/j.jct.2018.02.005).

± gives the expanded uncertainty stated by the source.

A short description of the series: refractive index (Na D-line) (dimensionless). As to conditions: 298.15 K; 100 kPa; Liquid; Standard Abbe refractometry.
Turning to `O` [water], the refractive index is listed as 1.33251 ± 0.00031.

For `CCO` [ethanol], the refractive index amounted to 1.35947 ± 0.00033.

With `CC(C)O` [propan-2-ol], the refractive index is reported as 1.37503 ± 0.00033.

Consider `CO` [methanol], for which the refractive index worked out at 1.32655 ± 0.00031.
